PubChem BioAssay AID328 (DTP/NCI, 2004)
Values joined by “and” are separate entries in the source; they are usually repeats but may differ in a detail not shown here. Equal entries are not always repeated. Inconclusive results and toxic doses are left out.

Test system: BDF1 mice, P388 leukemia ip, median survival T/C
Experiment: NCI In Vivo Anticancer Drug Screen. Data for tumor model P388 Leukemia (intraperitoneal) in B6D2F1 (BDF1) mice
Conditions: endpoint: median survival time, higher = longer survival
In short: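 In tumour-bearing mice, survival after compound treatment is set against the vehicle group and given as a quotient.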

[1] = dose: 100.0 mg/kg/injection, schedule: Q01DX005 (ip), vehicle: saline with Tween-80
[2] = dose: 50.0 mg/kg/injection, schedule: Q01DX009 (ip), vehicle: saline with Tween-80
[3] = dose: 100.0 mg/kg/injection, schedule: Q01DX009 (ip), vehicle: saline with Tween-80
[4] = dose: 200.0 mg/kg/injection, schedule: Q01DX009 (ip), vehicle: saline with Tween-80
[5] = dose: 25.0 mg/kg/injection, schedule: Q01DX009 (ip), vehicle: saline
[6] = dose: 25.0 mg/kg/injection, schedule: Q01DX009 (ip), vehicle: Klucel (hydroxypropylcellulose) (HPC)
[7] = dose: 35.0 mg/kg/injection, schedule: Q01DX009 (ip), vehicle: saline

COc1ccc(CC2c3cc(OC)c(OC)cc3CCN2C(=O)c2ccccc2)cc1OC (stereo not drawn)
T/C (dose: 50.0 mg/kg/injection, schedule: Q01DX005 (ip), vehicle: saline with Tween-80): 91 % of control | T/C [1]: 91 % of control

COC(=O)/C=C\SC(=S)C1CCCC1=O (stereo not drawn)
T/C [2]: 119 % of control | T/C [3]: 110 % of control | T/C [4]: 112 % of control

CO[C@@]12[C@H](COC(N)=O)C3=C(C(=O)C(C)=C(N)C3=O)N1C[C@H]1[C@@H]2N1C(=O)[C@@H]1N2C(=O)[C@@H](NC(=O)Cc3ccccc3)[C@H]2SC1(C)C
T/C (dose: 12.5 mg/kg/injection, schedule: Q01DX009 (ip), vehicle: saline): 151 % of control | T/C [5]: 160 % of control | T/C (dose: 50.0 mg/kg/injection, schedule: Q01DX009 (ip), vehicle: saline): 210 % of control

[O-][n+]1ccccc1Br
T/C (dose: 50.0 mg/kg/injection, schedule: Q04DX003 (ip), vehicle: water): 91 % of control | T/C (dose: 100.0 mg/kg/injection, schedule: Q04DX003 (ip), vehicle: water): 91 % of control

CN(C)c1ccc(/C=C/c2ccnc3ccc(Br)cc23)cc1
T/C [2]: 109 % of control | T/C [3]: 114 % of control | T/C [4]: 116 % of control

O=NN(CCCl)C(=O)N[C@@H]1CCCC[C@H]1NC(=O)N(CCCl)N=O
T/C (dose: 0.12 mg/kg/injection, schedule: Q04DX003 (ip), vehicle: Klucel (hydroxypropylcellulose) (HPC)): 120 % of control | T/C (dose: 0.18 mg/kg/injection, schedule: Q01DX009 (ip), vehicle: Klucel (hydroxypropylcellulose) (HPC)): 100 % of control | T/C (dose: 0.25 mg/kg/injection, schedule: Q04DX003 (ip), vehicle: Klucel (hydroxypropylcellulose) (HPC)): 100 % of control | T/C (dose: 0.37 mg/kg/injection, schedule: Q01DX009 (ip), vehicle: Klucel (hydroxypropylcellulose) (HPC)): 88 % of control | T/C (dose: 0.5 mg/kg/injection, schedule: Q04DX003 (ip), vehicle: Klucel (hydroxypropylcellulose) (HPC)): 108 % of control | T/C (dose: 0.75 mg/kg/injection, schedule: Q01DX009 (ip), vehicle: Klucel (hydroxypropylcellulose) (HPC)): 88 % of control | T/C (dose: 1.0 mg/kg/injection, schedule: Q04DX003 (ip), vehicle: Klucel (hydroxypropylcellulose) (HPC)): 150 % of control | T/C (dose: 1.5 mg/kg/injection, schedule: Q01DX009 (ip), vehicle: Klucel (hydroxypropylcellulose) (HPC)): 88 % of control | T/C (dose: 2.0 mg/kg/injection, schedule: Q04DX003 (ip), vehicle: Klucel (hydroxypropylcellulose) (HPC)): 113 % of control | T/C (dose: 3.0 mg/kg/injection, schedule: Q04DX003 (ip), vehicle: Klucel (hydroxypropylcellulose) (HPC)): 109 % of control | T/C (dose: 4.5 mg/kg/injection, schedule: Q01DX009 (ip), vehicle: Klucel (hydroxypropylcellulose) (HPC)): 191 % of control | T/C (dose: 6.0 mg/kg/injection, schedule: Q01DX009 (ip), vehicle: Klucel (hydroxypropylcellulose) (HPC)): 172 % of control | T/C (dose: 6.0 mg/kg/injection, schedule: Q04DX003 (ip), vehicle: Klucel (hydroxypropylcellulose) (HPC)): 150 % of control and 162 % of control and 172 % of control | T/C (dose: 7.0 mg/kg/injection, schedule: Q01DX009 (ip), vehicle: Klucel (hydroxypropylcellulose) (HPC)): 233 % of control | T/C (dose: 9.0 mg/kg/injection, schedule: Q04DX003 (ip), vehicle: Klucel (hydroxypropylcellulose) (HPC)): 213 % of control | T/C (dose: 11.0 mg/kg/injection, schedule: Q01DX009 (ip), vehicle: Klucel (hydroxypropylcellulose) (HPC)): 237 % of control and 250 % of control | T/C (dose: 12.0 mg/kg/injection, schedule: Q01DX009 (ip), vehicle: Klucel (hydroxypropylcellulose) (HPC)): 250 % of control | T/C (dose: 12.0 mg/kg/injection, schedule: Q04DX003 (ip), vehicle: Klucel (hydroxypropylcellulose) (HPC)): 159 % of control | T/C (dose: 12.5 mg/kg/injection, schedule: Q01DX009 (ip), vehicle: Klucel (hydroxypropylcellulose) (HPC)): 155 % of control | T/C (dose: 13.0 mg/kg/injection, schedule: Q04DX003 (ip), vehicle: Klucel (hydroxypropylcellulose) (HPC)): 250 % of control and 204 % of control | T/C (dose: 16.5 mg/kg/injection, schedule: Q01DX009 (ip), vehicle: Klucel (hydroxypropylcellulose) (HPC)): 250 % of control | T/C (dose: 20.0 mg/kg/injection, schedule: Q04DX003 (ip), vehicle: Klucel (hydroxypropylcellulose) (HPC)): 260 % of control and 272 % of control | T/C [6]: 272 % of control and 280 % of control | T/C [5]: 250 % of control | T/C (dose: 25.0 mg/kg/injection, schedule: Q04DX003 (ip), vehicle: Klucel (hydroxypropylcellulose) (HPC)): 222 % of control | T/C (dose: 30.0 mg/kg/injection, schedule: Q04DX003 (ip), vehicle: Klucel (hydroxypropylcellulose) (HPC)): 250 % of control and 272 % of control and 300 % of control | T/C [7]: 91 % of control | T/C (dose: 40.0 mg/kg/injection, schedule: Q04DX003 (ip), vehicle: Klucel (hydroxypropylcellulose) (HPC)): 300 % of control | T/C (dose: 44.0 mg/kg/injection, schedule: Q04DX003 (ip), vehicle: Klucel (hydroxypropylcellulose) (HPC)): 250 % of control | T/C (dose: 50.0 mg/kg/injection, schedule: Q04DX003 (ip), vehicle: Klucel (hydroxypropylcellulose) (HPC)): 272 % of control | T/C (dose: 67.0 mg/kg/injection, schedule: Q04DX003 (ip), vehicle: Klucel (hydroxypropylcellulose) (HPC)): 241 % of control and 250 % of control and 300 % of control | T/C (dose: 100.0 mg/kg/injection, schedule: Q04DX003 (ip), vehicle: Klucel (hydroxypropylcellulose) (HPC)): 260 % of control and 150 % of control and 195 % of control | T/C (dose: 150.0 mg/kg/injection, schedule: Q04DX003 (ip), vehicle: Klucel (hydroxypropylcellulose) (HPC)): 95 % of control | T/C (dose: 200.0 mg/kg/injection, schedule: Q04DX003 (ip), vehicle: Klucel (hydroxypropylcellulose) (HPC)): 86 % of control and 122 % of control

CCOC(=O)c1ccc(OP(=O)(N(C)C)N(C)C)cc1
T/C (dose: 12.5 mg/kg/injection, schedule: Q01DX009 (ip), vehicle: saline with Tween-80): 101 % of control | T/C (dose: 25.0 mg/kg/injection, schedule: Q01DX009 (ip), vehicle: saline with Tween-80): 110 % of control | T/C [2]: 100 % of control and 119 % of control

NNc1ccnc2[nH]ncc12
T/C (dose: 6.25 mg/kg/injection, schedule: Q01DX006 (ip), vehicle: saline with Tween-80): 107 % of control | T/C (dose: 12.5 mg/kg/injection, schedule: Q01DX006 (ip), vehicle: saline with Tween-80): 104 % of control | T/C (dose: 25.0 mg/kg/injection, schedule: Q01DX006 (ip), vehicle: saline with Tween-80): 104 % of control

CCOc1ccc(N2CC(=O)N3CCCN3C(=O)C2)cc1
T/C [1]: 88 % of control

N#C/C(=C\c1ccc(O)cc1)c1ccc([N+](=O)[O-])cc1
T/C (dose: 25.0 mg/kg/injection, schedule: Q01DX001 (ip), vehicle: saline): 98 % of control | T/C (dose: 50.0 mg/kg/injection, schedule: Q01DX001 (ip), vehicle: saline): 100 % of control | T/C (dose: 100.0 mg/kg/injection, schedule: Q01DX001 (ip), vehicle: saline with Tween-80): 97 % of control | T/C (dose: 100.0 mg/kg/injection, schedule: Q01DX001 (ip), vehicle: saline): 96 % of control

Oc1ccccc1/C=N\c1nccs1
T/C [6]: 111 % of control | T/C (dose: 50.0 mg/kg/injection, schedule: Q01DX009 (ip), vehicle: Klucel (hydroxypropylcellulose) (HPC)): 96 % of control and 109 % of control | T/C (dose: 100.0 mg/kg/injection, schedule: Q01DX009 (ip), vehicle: Klucel (hydroxypropylcellulose) (HPC)): 96 % of control and 118 % of control | T/C (dose: 200.0 mg/kg/injection, schedule: Q01DX009 (ip), vehicle: Klucel (hydroxypropylcellulose) (HPC)): 122 % of control and 123 % of control

O=S(=O)(C=C(N1CCCCC1)N1CCCCC1)Cc1ccccc1
T/C (dose: 8.75 mg/kg/injection, schedule: Q01DX009 (ip), vehicle: saline): 105 % of control | T/C (dose: 17.5 mg/kg/injection, schedule: Q01DX009 (ip), vehicle: saline): 115 % of control | T/C (dose: 26.25 mg/kg/injection, schedule: Q04DX003 (ip), vehicle: saline): 108 % of control | T/C [7]: 105 % of control | T/C (dose: 52.5 mg/kg/injection, schedule: Q04DX003 (ip), vehicle: saline): 104 % of control

CN(C)CC(C(=O)c1ccc(Br)cc1)C(Br)c1ccccc1 (stereo not drawn)
T/C (dose: 0.78 mg/kg/injection, schedule: Q01DX009 (ip), vehicle: Klucel (hydroxypropylcellulose) (HPC)): 100 % of control | T/C (dose: 1.56 mg/kg/injection, schedule: Q01DX009 (ip), vehicle: Klucel (hydroxypropylcellulose) (HPC)): 95 % of control | T/C (dose: 3.12 mg/kg/injection, schedule: Q01DX009 (ip), vehicle: Klucel (hydroxypropylcellulose) (HPC)): 108 % of control | T/C (dose: 4.6 mg/kg/injection, schedule: Q01DX009 (ip), vehicle: saline): 113 % of control | T/C (dose: 7.0 mg/kg/injection, schedule: Q01DX009 (ip), vehicle: saline): 118 % of control | T/C (dose: 10.0 mg/kg/injection, schedule: Q01DX009 (ip), vehicle: saline): 109 % of control | T/C (dose: 14.0 mg/kg/injection, schedule: Q01DX009 (ip), vehicle: saline): 108 % of control | T/C (dose: 16.25 mg/kg/injection, schedule: Q04DX003 (ip), vehicle: saline): 100 % of control | T/C (dose: 22.0 mg/kg/injection, schedule: Q01DX009 (ip), vehicle: saline): 108 % of control | T/C (dose: 32.5 mg/kg/injection, schedule: Q04DX003 (ip), vehicle: saline): 105 % of control | T/C (dose: 65.0 mg/kg/injection, schedule: Q04DX003 (ip), vehicle: saline): 110 % of control
